In article PMC8920929 (The Journal of Biological Chemistry, 2022):
Residue numbers refer to the chain shown, from its start.

Tests used:
[1] = biological target: T1, human TRPV3 (Homo sapiens, UniProt Q8NET8); experiment: Inside-out single channel recordings of TRPV3; type: biochemical
T1 sequence (Q8NET8 1-790): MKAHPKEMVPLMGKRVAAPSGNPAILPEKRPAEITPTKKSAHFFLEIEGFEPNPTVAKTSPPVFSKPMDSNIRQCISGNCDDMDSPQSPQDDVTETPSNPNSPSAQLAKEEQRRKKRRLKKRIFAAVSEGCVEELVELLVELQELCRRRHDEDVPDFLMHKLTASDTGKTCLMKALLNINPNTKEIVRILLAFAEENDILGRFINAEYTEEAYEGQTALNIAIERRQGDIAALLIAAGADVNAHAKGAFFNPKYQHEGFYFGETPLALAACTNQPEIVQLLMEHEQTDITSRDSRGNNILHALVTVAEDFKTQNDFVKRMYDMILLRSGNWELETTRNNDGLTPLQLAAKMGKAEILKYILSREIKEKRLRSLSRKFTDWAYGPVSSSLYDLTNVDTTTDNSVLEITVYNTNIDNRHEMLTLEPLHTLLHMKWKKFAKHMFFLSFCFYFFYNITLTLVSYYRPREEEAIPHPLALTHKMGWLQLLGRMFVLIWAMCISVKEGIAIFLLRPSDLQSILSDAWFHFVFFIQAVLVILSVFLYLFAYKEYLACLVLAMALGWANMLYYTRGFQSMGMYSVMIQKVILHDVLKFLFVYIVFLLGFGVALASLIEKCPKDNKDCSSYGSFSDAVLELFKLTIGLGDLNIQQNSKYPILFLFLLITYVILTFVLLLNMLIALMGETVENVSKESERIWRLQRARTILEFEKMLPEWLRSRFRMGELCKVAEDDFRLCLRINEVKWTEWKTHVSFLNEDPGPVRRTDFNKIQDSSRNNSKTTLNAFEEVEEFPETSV

[2] = tested on: mice; settings: ref [35]; cited from earlier work
[3] = tested on: keratinocytes; settings: ref [35]; cited from earlier work
[4] = tested on: TRPV3; settings: ref [30], cited from earlier work; for TRPV3 currents induced: in comparison with carvacrol
[5] = biological target: T2, TRPV3-I505A (Homo sapiens, UniProt Q8NET8, I505A); experiment: Whole-cell and single-channel recordings of the TRPV3-I505A mutant; type: cell-based; settings: carvacrol 0.3-3.0 mM or 50 μM 2-APB
T2 sequence (Q8NET8 1-790 I505A): T1 sequence (Q8NET8 1-790) with I505A

[6] = biological target: T3, TRPV3-L508A (Homo sapiens, UniProt Q8NET8, L508A); experiment: Whole-cell and single-channel recordings of the TRPV3-L508A mutant; type: cell-based; settings: carvacrol 0.3-3.0 mM or 50 μM 2-APB
T3 sequence (Q8NET8 1-790 L508A): T1 sequence (Q8NET8 1-790) with L508A

[7] = biological target: T4, TRPV3-L508F (Homo sapiens, UniProt Q8NET8, L508F); experiment: Whole-cell and single-channel recordings of the TRPV3-L508F mutant; type: cell-based; settings: carvacrol 0.3-3.0 mM or 50 μM 2-APB
T4 sequence (Q8NET8 1-790 L508F): T1 sequence (Q8NET8 1-790) with L508F

[8] = biological target: TRPV3-F524A (Homo sapiens, UniProt Q8NET8, F524A); settings: 50 μM 2-APB; the mutant also lost surface expression
TRPV3-F524A, sequence (Q8NET8 whole entry F524A): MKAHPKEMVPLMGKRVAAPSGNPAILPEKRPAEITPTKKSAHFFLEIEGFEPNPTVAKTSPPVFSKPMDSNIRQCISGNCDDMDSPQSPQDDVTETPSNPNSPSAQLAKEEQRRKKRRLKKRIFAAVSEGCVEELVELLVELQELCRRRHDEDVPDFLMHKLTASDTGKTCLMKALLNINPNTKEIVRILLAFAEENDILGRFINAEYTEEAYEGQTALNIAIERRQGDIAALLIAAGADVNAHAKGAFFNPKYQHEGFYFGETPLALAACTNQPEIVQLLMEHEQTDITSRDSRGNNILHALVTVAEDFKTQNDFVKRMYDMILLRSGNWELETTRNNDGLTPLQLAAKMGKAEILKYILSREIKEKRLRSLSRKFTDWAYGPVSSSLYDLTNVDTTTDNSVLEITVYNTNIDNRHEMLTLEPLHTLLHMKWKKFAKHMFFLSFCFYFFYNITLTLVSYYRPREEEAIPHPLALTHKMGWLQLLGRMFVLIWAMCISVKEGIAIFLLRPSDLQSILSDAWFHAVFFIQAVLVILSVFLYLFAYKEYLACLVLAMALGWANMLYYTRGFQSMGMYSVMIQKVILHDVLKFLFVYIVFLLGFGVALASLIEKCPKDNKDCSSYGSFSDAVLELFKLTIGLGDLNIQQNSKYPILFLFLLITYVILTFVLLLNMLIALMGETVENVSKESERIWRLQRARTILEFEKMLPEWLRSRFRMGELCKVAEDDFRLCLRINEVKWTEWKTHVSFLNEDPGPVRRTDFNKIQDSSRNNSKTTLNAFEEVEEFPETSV

[9] = tested on: TRPV3; settings: ref [38]; cited from earlier work
[10] = FB 50 μM in the presence of 50 μM 2-APB, +80 mV
[11] = FB 50 μM in the presence of 300 μM carvacrol, +80 mV
[12] = +80 mV, carvacrol 300 μM or 2-APB 50 μM alone

Compound: forsythoside B [FB]
- Po after addition of inhibitor, 2-APB-activated channels [1, 10]: 0.12 ± 0.08
- open Freq after addition of inhibitor, 2-APB-activated channels [1, 10]: 20.07 ± 1.77 Hz
- Po after addition of inhibitor, carvacrol-activated channels [1, 11]: 0.12 ± 0.03
- open Freq after addition of inhibitor, carvacrol-activated channels [1, 11]: 21.78 ± 2.59 Hz
- effect on carvacrol-induced pruritus [2]: attenuates pruritus
- effect on carvacrol-induced cytotoxicity of keratinocytes [3]: attenuates

Compound: Cc1ccc(C(C)C)cc1 [p-Cymene]
- TRPV3 currents induced [4]: small or negligible

Compound: CC12CCC(CC1=O)C2(C)C (stereo not drawn) [camphor]
- EC50 ([4]; read-out: EC50, activation of TRPV3, [32]): ~6 mM

Compound: NCCOB(c1ccccc1)c1ccccc1 [2-APB, 2-aminoethyl diphenylborinate]
- single-channel open frequency (Freq) [1, 12]: 65.48 ± 12.31 Hz
- single-channel open probability (Po) [1, 12]: 0.77 ± 0.07
- unitary conductance of TRPV3 single channels ([1]; inside-out patches, -80 mV to +80 mV, carvacrol 300 μM, 2-APB 50 μM, n = 4): 173.2 ± 5.3 pS
- activation of TRPV3 I505A mutant channel [5]: intact activation
- activation of TRPV3 L508A mutant channel [6]: still able to activate the mutant channel
- activation of TRPV3 L508F mutant channel [7]: but not 2-APB
- sensitivity of TRPV3 F524A mutant channel [8]: reduced sensitivity
- unitary conductance, 2-APB in the absence of dyclonine [9]: 163.6 ± 6.4 pS
- unitary conductance, 2-APB in the presence of TRPV3 inhibitor dyclonine [9]: 179.2 ± 5.5 pS

Compound: Cc1ccc(C)c(O)c1 [p-Xylenol]
- TRPV3 currents induced [4]: small or negligible
